The results in this text go back to patent publication US9765092B2, “Tricyclic piperidine compounds” (ACTELION PHARMACEUTICALS LTD, priority 2013, dated 2017).

By IC50 is commonly meant the concentration at which inhibition is half-maximal.

human TPH1, sequence (P17752 whole entry): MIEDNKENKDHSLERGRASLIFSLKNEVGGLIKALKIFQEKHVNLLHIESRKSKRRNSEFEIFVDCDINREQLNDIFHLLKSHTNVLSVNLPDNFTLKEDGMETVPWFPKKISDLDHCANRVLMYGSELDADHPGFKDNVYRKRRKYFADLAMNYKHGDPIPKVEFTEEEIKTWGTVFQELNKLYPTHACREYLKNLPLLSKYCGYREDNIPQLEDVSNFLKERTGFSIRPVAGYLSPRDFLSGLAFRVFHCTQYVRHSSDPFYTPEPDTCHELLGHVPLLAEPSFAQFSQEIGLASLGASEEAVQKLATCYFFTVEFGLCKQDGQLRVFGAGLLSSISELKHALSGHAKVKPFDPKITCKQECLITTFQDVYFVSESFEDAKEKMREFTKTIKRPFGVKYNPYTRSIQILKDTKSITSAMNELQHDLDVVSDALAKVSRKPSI

In one experiment the target is human TPH1 (Homo sapiens (Human), UniProt P17752). Kind of experiment: Biochemical in vitro assay using fluorescence readout (TPH1 inhibition). The note with it: full length human TPH1, 40 μM L-tryptophan, 15° C., 60 minutes, fluorescence at 540 nm; mean if determined several times. The text has this:
Biochemical In Vitro Assay Using Fluorescence Readout
To generate the enzyme, full length human TPH1 is cloned into the plasmid pET20b(+) (Novagen) and expressed in E. coli. The bacterial cells are ruptured by sonication on ice and the lysate is cleared by centrifugation. The resulting protein in the pellet is re-extracted and TPH1 is purified from the obtained lysate by affinity chromatography using a pterin cosubstrate analog immobilized to the resin of the column. The protein is further purified by size exclusion chromatography to remove protein aggregates. The activity of TPH1 is determined by using a fluorescence assay. The enzyme activity assay is carried out at 15° C. with atmosphere oxygen for the duration of 60 minutes in a volume of 64 μl. The reaction is carried out in a 0.1 M Tris-HCl buffer, adjusted to pH 7.6, containing 1 mM DTT, 0.2 mg/mL catalase, 100 μM (±)-6-methyl-5,6,7,8-tetrahydropterine dihydrochloride, 40 μM L-tryptophan, and 40-80 nM of TPH1. The reaction is started by bringing together L-tryptophan with all the other reaction substituents and stopped by quenching with perchloric acid (HClO4). The amount of 5-hydroxy-L-tryptophan produced during the enzymatic reaction is determined by fluorescence readout. Fluorescence, as determined at 540 nm when excited at 300 nm wavelength, increases proportionally to the 5-hydroxy-L-tryptophan formed. Compounds are prepared as 10 mM stock solution in DMSO, then diluted in 384-well plates using DMSO followed by a transfer of the dilutions into the assay plate. Fluorescence is measured for each well and the fluorescence at 540 nm wavelength is compared to the fluorescence of the vehicle in place of compound. Inhibitory activities of example compounds with respect to the TPH1 protein are determined by calculating the IC50 value (the concentration of compound needed to inhibit 50% of the enzyme activity). The calculated IC50 values may fluctuate depending on the daily biochemical assay performance. Fluctuations of this kind are known to those skilled in the art.
On to `Cc1nn2c3c(nc2s1)CCN(C(=O)COc1ccc(N2CCOCC2)nc1Cl)C3c1cc(-c2nn[nH]n2)cs1` (stereo not shown) [Example 1.63.1, 1-(5-(4-(2H-Tetrazol-5-yl)thiophen-2-yl)-2-methyl-7,8-dihydro-[1,3,4]-thiadiazolo-[2′,3′:2,3]imidazo[4,5-c]pyridin-6(5H)-yl)-2-((2-chloro-6-morpholinopyridin-3-yl)oxy)ethanone], for which the IC50 was 0.023 µM. As for `Cc1nn2c3c(nc2s1)CCN(C(=O)COc1ccc(N2CCOCC2)nc1Cl)C3c1nc(C(=O)O)cs1` (stereo not shown) [Example 1.41.1, 2-(6-(2-((2-chloro-6-morpholinopyridin-3-yl)oxy)acetyl)-2-methyl-5,6,7,8-tetrahydro-[1,3,4]thiadiazolo[2′,3′:2,3]imidazo[4,5-c]pyridin-5-yl)thiazole-4-carboxylic acid], the IC50 was found to be 0.065 µM. The compound `Cc1nn2c3c(nc2s1)CCN(C(=O)COc1ccc(C(F)(F)F)nc1Cl)C3c1cnc(N(C)C)s1` (stereo not shown) [Example 1.22.3, 2-((2-Chloro-6-(trifluoromethyl)pyridin-3-yl)oxy)-1-(5-(2-(dimethylamino)thiazol-5-yl)-2-methyl-7,8-dihydro-[1,3,4]thiadiazolo[2′,3′:2,3]imidazo[4,5-c]pyridin-6(5H)-yl)ethanone] had an IC50 of 0.136 µM.

The experiment is the same for the next values; noted with them: human TPH1, fluorescence readout.
`Cc1nn2c3c(nc2s1)CCN(C(=O)COc1ccc(N(C)CC(F)(F)F)nc1Cl)C3c1ncc(C2CC2)cc1F` (stereo not shown) [Example 1.14.10, 2-((2-chloro-6-(methyl(2,2,2-trifluoroethyl)amino)pyridin-3-yl)oxy)-1-(5-(5-cyclopropyl-3-fluoropyridin-2-yl)-2-methyl-7,8-dihydro-[1,3,4]thiadiazolo[2′,3′:2,3]imidazo[4,5-c]pyridin-6(5H)-yl)ethanone] showed an IC50 of 0.004 µM.

Regarding `Cc1nn2c3c(nc2s1)CCN(C(=O)COc1ccc(N2CCOCC2)nc1Cl)C3c1cc(C(C)(C)O)cs1` (stereo not shown) [Example 1.20.1, 2-((2-chloro-6-morpholinopyridin-3-yl)oxy)-1-(5-(4-(2-hydroxypropan-2-yl)thiophen-2-yl)-2-methyl-7,8-dihydro-[1,3,4]thiadiazolo[2′,3′:2,3]imidazo[4,5-c]pyridin-6(5H)-yl)ethanone], the IC50 is 0.012 µM. The compound `Cc1nn2c3c(nc2s1)CCN(C(=O)COc1ccc(C(F)(F)F)nc1Cl)C3c1ccc(C2CC2)cc1F` (stereo not shown) [Example 1.6.24, 2-((2-chloro-6-(trifluoromethyl)pyridin-3-yl)oxy)-1-(5-(4-cyclopropyl-2-fluorophenyl)-2-methyl-7,8-dihydro-[1,3,4]thiadiazolo[2′,3′:2,3]imidazo[4,5-c]pyridin-6(5H)-yl)ethanone] displayed an IC50 of 0.007 µM. With `COCc1ccc(C2c3c(nc4sc(C)nn34)CCN2C(=O)COc2ccc(C(=O)NC3CC3)nc2Cl)c(F)c1` (stereo not shown) [Example 1.82.2, 6-chloro-N-cyclopropyl-5-(2-(5-(2-fluoro-4-(methoxymethyl)phenyl)-2-methyl-7,8-dihydro-[1,3,4]thiadiazolo[2′,3′:2,3]imidazo[4,5-c]pyridin-6(5H)-yl)-2-oxoethoxy)picolinamide], inhibition was half-maximal at 0.014 µM (IC50). Still for that read-out and setting: under `N#Cc1ccc(OCC(=O)N2CCc3nc4scnn4c3C2c2ccc(Cl)cc2F)c(Cl)c1` (stereo not shown) [Example 2.1.2, 3-chloro-4-(2-(5-(4-chloro-2-fluorophenyl)-7,8-dihydro-[1,3,4]thiadiazolo[2′,3′:2,3]imidazo[4,5-c]pyridin-6(5H)-yl)-2-oxoethoxy)benzonitrile] stands 0.031 µM.

In turn, `Cc1ccccc1OCC(=O)N1CCc2nc3sccn3c2C1c1nc2ccccc2s1` (stereo not shown) [Example 6.12.2, 1-(5-(benzo[d]thiazol-2-yl)-7,8-dihydrothiazolo-[2′,3′:2,3]imidazo[4,5-c]pyridin-6(5H)-yl)-2-(o-tolyloxy)-ethanone] came in with an IC50 of 0.115 µM.

Turning to `CCc1nc(NS(C)(=O)=O)ncc1OCC(=O)N1CCc2nc3sc(C)nn3c2[C@@H]1c1ncc(C)cc1F` [Example 1.31.19, (R)-N-(4-ethyl-5-(2-(5-(3-fluoro-5-methylpyridin-2-yl)-2-methyl-7,8-dihydro-[1,3,4]thiadiazolo[2′,3′:2,3]imidazo[4,5-c]pyridin-6(5H)-yl)-2-oxoethoxy)pyrimidin-2-yl)methanesulfonamide], inhibition was half-maximal at 0.051 µM (IC50). Still for that read-out and setting: under `CCn1nc(C(=O)OC)cc1OCC(=O)N1CCc2nc3sc(C)nn3c2C1c1sccc1F` (stereo not shown) [Example 1.23.12, Methyl 1-ethyl-5-(2-(5-(3-fluorothiophen-2-yl)-2-methyl-7,8-dihydro-[1,3,4]thiadiazolo[2′,3′:2,3]imidazo[4,5-c]pyridin-6(5H)-yl)-2-oxoethoxy)-1H-pyrazole-3-carboxylate] stands 0.265 µM; under `O=C(COc1ccc(-c2ncco2)nc1Cl)N1CCc2nc3scnn3c2C1c1ccc(Cl)cc1F` (stereo not shown) [Example 2.1.3], 0.008 µM; under `CCn1nc(C(=O)N(C)C)cc1OCC(=O)N1CCc2nc3sc(C)nn3c2C1c1sccc1F` (stereo not shown) [Example 1.23.13, 1-ethyl-5-(2-(5-(3-fluorothiophen-2-yl)-2-methyl-7,8-dihydro-[1,3,4]thiadiazolo[2′,3′:2,3]imidazo[4,5-c]pyridin-6(5H)-yl)-2-oxoethoxy)-N,N-dimethyl-1H-pyrazole-3-carboxamide], 0.103 µM. Consider `Cc1nn2c3c(nc2s1)CCN(C(=O)COc1ccc(C(=O)N(C)C)nc1Cl)C3c1ccc(C(F)(F)F)cc1F` (stereo not shown) [Example 1.56.1, 6-chloro-5-(2-(5-(2-fluoro-4-(trifluoromethyl)phenyl)-2-methyl-7,8-dihydro-[1,3,4]thiadiazolo[2′,3′:2,3]imidazo[4,5-c]pyridin-6(5H)-yl)-2-oxoethoxy)-N,N-dimethylpicolinamide], for which the IC50 came out at 0.015 µM. Same read-out and setting: the result for `Cc1nn2c3c(nc2s1)CCN(C(=O)COc1ccc(N(C)C)nc1C)C3c1ccc(C2CC2)cc1F` (stereo not shown) [Example 1.6.15, 1-(5-(4-cyclopropyl-2-fluorophenyl)-2-methyl-7,8-dihydro-[1,3,4]thiadiazolo[2′,3′:2,3]imidazo[4,5-c]pyridin-6(5H)-yl)-2-((6-(dimethylamino)-2-methylpyridin-3-yl)oxy)ethanone] reads 0.006 µM.

Compound `CNC(=O)c1ccc(OCC(=O)N2CCc3nc4sc(C)nn4c3C2c2sccc2F)c(Cl)n1` (stereo not shown) [Example 1.23.10, 6-chloro-5-(2-(5-(3-fluorothiophen-2-yl)-2-methyl-7,8-dihydro-[1,3,4]thiadiazolo[2′,3′:2,3]imidazo[4,5-c]pyridin-6(5H)-yl)-2-oxoethoxy)-N-methylpicolinamide] yielded an IC50 of 0.009 µM. Still for that read-out and setting: under “1-(5-(4-chloro-2-fluorophenyl)-7,8-dihydrothiazolo[2′,3′:2,3]imidazo[4,5-c]pyridin-6(5H)-yl)-2-(2-ethyl-4-fluorophenoxy)ethanone [Example 6.4.1]” stands 0.014 µM; under `Cc1nn2c3c(nc2s1)CCN(C(=O)COc1ccc(S(C)(=O)=O)nc1Cl)C3c1ccc(Cl)cc1F` (stereo not shown) [Example 1.4.59, 1-(5-(4-chloro-2-fluorophenyl)-2-methyl-7,8-dihydro-[1,3,4]thiadiazolo[2′,3′:2,3]imidazo[4,5-c]pyridin-6(5H)-yl)-2-((2-chloro-6-(methylsulfonyl)pyridin-3-yl)oxy)ethan-1-one], 0.027 µM; under `Cc1nn2c3c(nc2s1)CCN(C(=O)COc1ccc(C(=O)N(C)C)nc1Cl)C3c1sc(C(=O)N(C)C)cc1F` (stereo not shown) [Example 1.24.7, 6-chloro-5-(2-(5-(5-(dimethylcarbamoyl)-3-fluorothiophen-2-yl)-2-methyl-7,8-dihydro-[1,3,4]thiadiazolo[2′,3′:2,3]imidazo[4,5-c]pyridin-6(5H)-yl)-2-oxoethoxy)-N,N-dimethylpicolinamide], 0.005 µM. Still for that read-out and setting: under `CCc1ncccc1OCC(=O)N1CCc2nc3sc(C)nn3c2C1c1cc(CN(C)C)cs1` (stereo not shown) [Example 1.8.2, 1-(5-(4-((dimethylamino)methyl)thiophen-2-yl)-2-methyl-7,8-dihydro-[1,3,4]thiadiazolo[2′,3′:2,3]imidazo[4,5-c]pyridin-6(5H)-yl)-2-((2-ethylpyridin-3-yl)oxy)ethanone] stands 0.14 µM. For the compound `Cc1nn2c3c(nc2s1)CCN(C(=O)COc1ccc(C(N)=O)nc1Cl)C3c1ccc(Cl)cc1F` (stereo not shown) [Example 1.4.19, 6-chloro-5-(2-(5-(4-chloro-2-fluorophenyl)-2-methyl-7,8-dihydro-[1,3,4]thiadiazolo[2′,3′:2,3]imidazo[4,5-c]pyridin-6(5H)-yl)-2-oxoethoxy)picolinamide], half-maximal inhibition (IC50) was put at 0.005 µM. The same measure, in the same setting: the result for `Cc1cnc(C2c3c(nc4sc(C)nn34)CCN2C(=O)COc2ccc(C(F)(F)F)cc2Cl)c(F)c1` (stereo not shown) [Example 1.31.1, 2-(2-chloro-4-(trifluoromethyl)phenoxy)-1-(5-(3-fluoro-5-methylpyridin-2-yl)-2-methyl-7,8-dihydro-[1,3,4]thiadiazolo [2′,3′:2,3]imidazo[4,5-c]pyridin-6(5H)-yl)ethanone] reads 0.014 µM.
